pIC50: −log10 of the molar value.
Target: hydrilla PDS position 304 Arginine, His-tagged (Hydrilla verticillata, UniProt Q66PY0)
Experiment: Cross-resistance testing, His-tagged column-purified PDS (Table 2A)
Assay type: biochemical
Conditions: for R/S: Arginine at 304 (reference), Table 2A; for pIC50: Arginine at 304, His-tagged, column-purified PDS, read-out: I50
Source text: The alternative approach utilized His-tagging and column purification of the mutant PDS protins.
In order to express pds in bacteria, deletion clones were made for each of the three potential start codons with and without ATG. […] The forward primers used were ORF (5′ […] 3′), ORF-ATG (5′ […] 3′), 3_ORF (5′[…] 3′) and 3_ORF-ATG (5′ […] 3′). The resulting plasmids were named pORF, pORF-ATG (minus ATG codon), p3ORF and p3ORF-ATG. The pds-containing EcoRI-fragments of these plasmids were subcloned into the EcoRI site of pRSETb vector (Invitrogen) for Histidine tagging and bacterial expression. The resulting constructs were pHy4SET, pHy4SET-ATG (minus ATG), p3ORFSET and p3ORFSET-ATG.
Primers used to replace Arg by His were Hyd-His-For (5′[…] 3′) and Hyd-His-Rev (5′ […] 3′); to replace Arg by Thr we used primers Hyd-Thr-For (5′[…] 3′) and Hyd-Thr-Rev (5′[…] 3′); to replace Arg by Ser we used Hyd-Ser-For (5′[…] 3′) and Hyd-Ser-Rev (5′[…] 3′); and Arg was replaced by Cys using Hyd-Cys-For (5′[…] 3′) and Hyd-Cys-Rev (5′[…] 3′). Resulting plasmids were named: p3ORFHisSet-ATG, p3ORFThrSet-ATG, p3ORFSerSet-ATG and p3ORFCysSet-ATG.
All pRSET derived constructs were transformed into BL21(DE3)pLysS cells (Invitrogen), induced with IPTG for protein expression, and the His tag overproduced proteins analyzed by Western blot using Anti-HisG antibody (Invitrogen, cat. #R940-25).
BL21(DE3)pLysS cells were grown overnight in 500 ml Luria Broth (LB) supplemented with carbenicillin (100 mg/l) and cloramphenicol (60 mg/l) at 37° C., and induced with 0.3 mM isopropylthio-β-D-galactoside (IPTG) for 3 hrs. Cells were lysed using a French press (Spectronics Instrument) at 20,000 psi and overexpressed PDS was purified on a nickel activated Hitrap Chelating HP column according to the manufacturers instructions (Amersham Bioscience).
Generally, PDS protein fractions prepared as described above (Non-His-tagged and His-tagged) were mixed with a soluble fraction from phytoene-producing E. coli cells. […] This E. coli strain was separately cultured and lysed, and its soluble components collected (“the EB extract”) in a fashion similar to that described above for the PDS-producing cells.
His-tagged, purified proteins prepared as described above were transferred to the assay buffer on a PD10 column (Amersham Bioscience) and the concentration was adjusted to 100 μg/mL. Crude extracts containing phytoene were produced in E. coli JM101/pACCRT-EB containing geranylgeranyl pyrophosphate synthase and phytoene synthase enzymes from Erwinia uredova as described above. The reaction assays consisted of 50 μg PDS in 500 μl of assay buffer (200 mM Sodium Phosphate, pH 7.2) and 500 μl of pACCRT-EB extract. The herbicide (10 μL in MeOH) was added to the 500 μl of PDS extract and incubated on ice for 15 minutes prior to mixing it with the EB extract. […] Dose-response curves were fitted to the four-parameter logistic function. […] I^50 values were calculated from the regressions.

Chain of hydrilla PDS position 304 Arginine, His-tagged (Q66PY0 77-580): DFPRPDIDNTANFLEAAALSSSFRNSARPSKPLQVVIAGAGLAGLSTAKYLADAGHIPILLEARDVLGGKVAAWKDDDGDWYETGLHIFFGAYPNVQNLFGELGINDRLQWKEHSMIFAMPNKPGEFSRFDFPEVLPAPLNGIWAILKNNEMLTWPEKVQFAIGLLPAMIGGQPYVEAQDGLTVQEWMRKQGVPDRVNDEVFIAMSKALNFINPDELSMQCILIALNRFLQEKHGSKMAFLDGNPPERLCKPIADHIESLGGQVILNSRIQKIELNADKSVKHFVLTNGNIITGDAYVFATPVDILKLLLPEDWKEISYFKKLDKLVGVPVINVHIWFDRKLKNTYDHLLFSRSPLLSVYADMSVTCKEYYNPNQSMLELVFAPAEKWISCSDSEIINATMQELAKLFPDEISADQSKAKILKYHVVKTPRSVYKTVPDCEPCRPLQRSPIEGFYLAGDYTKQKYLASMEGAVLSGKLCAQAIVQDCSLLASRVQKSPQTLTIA

Molecule: O=C1C(Cl)C(CCl)CN1c1cccc(C(F)(F)F)c1 (centres unmarked) [Fluorochloridone]
- R/S (30 min): 1
- pIC50: 3.89

Molecule: CNc1cnn(-c2cccc(C(F)(F)F)c2)c(=O)c1Cl [Norflurazon]
- pIC50: 4.30

Molecule: CNC1=C(c2cccc(C(F)(F)F)c2)C(=O)C(c2ccccc2)O1 (centres unmarked) [Flurtamone]
- R/S (30 min): 1
- pIC50: 3.52

Molecule: CCC(Oc1ccc(F)c(C(F)(F)F)c1)C(=O)NCc1ccccc1 (centres unmarked) [Beflubutamid]
- R/S: 1
- pIC50: 4.14

Molecule: O=C(Nc1ccc(F)cc1)c1cccc(Oc2cccc(C(F)(F)F)c2)n1 [Piconilafen, Picolinafen]
- pIC50: 3.49

Molecule: Fluridone
- R/S (30 min): 1

Molecule: O=C(Nc1ccc(F)cc1F)c1cccnc1Oc1cccc(C(F)(F)F)c1 [Diflufenican]
- R/S (30 min): 1
- pIC50: 4.00

— patent US20110098180A1, “Herbicide-Resistant Plants, And Polynucleotides And Methods For Providing Same” (United States Department of Agriculture, priority 2002, published 2011)
